This test addresses CLso STP (Candidatus Liberibacter solanacearum, UniProt A0A094YYW1). Format: binding.

Chain of CLso STP (A0A094YYW1 1-207): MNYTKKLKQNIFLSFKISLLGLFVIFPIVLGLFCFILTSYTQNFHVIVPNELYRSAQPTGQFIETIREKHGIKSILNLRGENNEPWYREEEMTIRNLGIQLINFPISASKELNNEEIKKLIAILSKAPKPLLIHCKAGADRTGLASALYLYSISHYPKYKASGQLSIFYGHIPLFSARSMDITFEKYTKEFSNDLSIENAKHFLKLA

Glucose 6-phosphate [G6P] registered a Ka of 17.58 M⁻¹ s⁻¹.

Source of the values: PMC10904284 (iScience, 2024).
